This is an account of results in patent US20100331348A1, “TROPANE DERIVATIVES USEFUL AS PESTICIDES” (SYNGENTA CROP PROTECTION, INC., priority 2007, published 2010).

SMILES strings stand for the structures. Like-named read-outs stand apart in the source and are kept apart here.

Test [1] deals with Erysiphe graminis f.sp. tritici. Kind of test: Erysiphe graminis f.sp. tritici (wheat powdery mildew) leaf disk assay. Format: in vivo. To be noted: Blumeria graminis, foliar, 96 h, preventive, four days after inoculation, read-out: control of fungal infection, Erysiphe graminis fsp. tritici.
The subject of test [2] is Puccinia recondita f.sp. tritici. Kind of test: Puccinia recondita f.sp. tritici (wheat brown rust) leaf disk assay. Type of test: in vivo. To be noted: foliar, 216 h, preventive, nine days after inoculation, read-out: control of fungal infection, Puccinia recondita f.sp. tritici.
A further test concerns Pyricularia oryzae. Kind of test: whole plant or invertebrate. Format: in vivo. The note with it: foliar, 96 h.
For a further test, the system named is Heliothis virescens. In words: Heliothis virescens (Tobacco budworm) egg test on artificial diet. To be noted: 96 h, read-out: control of Heliothis virescens.
A further test has as its system Aedes aegypti. Kind of test: Aedes aegypti (Yellow fever mosquito) larvae test. Format: in vivo. To be noted: 48 h.
Another test relates to Phytophthora infestans. Kind of test: whole plant or invertebrate. Format: in vivo. The note with it: foliar, 96 h, read-out: control of fungal infection, Phytophthora infestans.
Another test deals with Plasmopara viticola. Kind of test: Plasmopara viticola (downy mildew of grapevine) leaf disk assay. Type of test: in vivo. To be noted: foliar, 168 h, preventive, seven days after inoculation, read-out: control of fungal infection, Plasmopara viticola.
In a further test the test system is Plutella xylostella. Kind of test: Plutella xylostella (Diamond back moth) artificial diet test. The note with it: 120 h, read-out: control of Plutella xylostella.
Another test deals with Tetranychus urticae. To be noted: foliar, 192 h, read-out: control of Tetranychus urticae.
The mark [3] stands for this setting: read-out: control of fungal infection, Pyricularia oryzae (at least 60% list).
Setting [4] is: read-out: control of fungal infection, Pyricularia oryzae (at least 80% list).

On to `Fc1cc(Cl)cnc1OC1C[C@H]2CC[C@@H](C1)N2c1ncnc2sccc12` (some centres unmarked) [Example 1.72], for which the pest or weed control at 200 ppm was at least 80% in test [1]; at least 80% in test [2]; at least 60% in the test on Pyricularia oryzae (setting [3]); at least 80% in the test with Pyricularia oryzae (setting [4]); at least 80% with Heliothis virescens.

As for `CCC(=O)c1cc(F)c(OC2C[C@H]3CC[C@@H](C2)N3c2ncnc3sccc23)c(F)c1` (some centres unmarked) [Example 2.66], in the test on Aedes aegypti, the pest or weed control at 2 ppm was at least 80%. In addition, the pest or weed control at 200 ppm (in test [1]; in the test on Phytophthora infestans; in the test with Plasmopara viticola; in the test with Plutella xylostella; in the test with Tetranychus urticae) was at least 80% throughout.

`Cc1csc2ncnc(N3[C@@H]4CC[C@H]3CC(Oc3ccc(C(F)(F)F)cn3)C4)c12` (some centres unmarked) [Example 2.71] displayed a pest or weed control at 2 ppm with Aedes aegypti of at least 80%. The pest or weed control at 200 ppm was at least 80% in test [1], at least 60% in the test on Pyricularia oryzae (setting [3]), at least 80% in the test on Plasmopara viticola and at least 80% in the test on Tetranychus urticae.

Consider `COCc1ncnc(N2[C@@H]3CC[C@H]2CC(Oc2ccc(C(F)(F)F)cn2)C3)c1OC` (some centres unmarked) [Example 2.167], for which the pest or weed control at 200 ppm (in [1]; in the test with Heliothis virescens) was at least 80% throughout.

As to `FC(F)(F)c1ccc(OC2C[C@H]3CC[C@@H](C2)N3c2ccnc3c(Cl)cccc23)nc1` (some centres unmarked) [Example 2.206], the pest or weed control at 200 ppm with Pyricularia oryzae (setting [3]) is at least 60%; with Plasmopara viticola, at least 80%; with Tetranychus urticae, at least 80%.

Turning to `Cn1nc(C(F)(F)F)cc1C(=O)N1[C@@H]2CC[C@H]1CC(Oc1ccc(C(F)(F)F)cn1)C2` (some centres unmarked) [Example 2.222], the pest or weed control at 200 ppm (in test [1]; in the test with Heliothis virescens) was at least 80% throughout.

The compound `CCc1ncnc(N2C3CCC2CC(=Cc2ccccc2)C3)c1Cl` [Example 3.6] registered a pest or weed control at 2 ppm in the test on Aedes aegypti of at least 80%. In addition, the pest or weed control at 200 ppm was at least 60% with Pyricularia oryzae (setting [3]), at least 80% with Phytophthora infestans, at least 80% in the test on Plutella xylostella and at least 80% in the test with Tetranychus urticae.

Take `CCc1ncnc(N2C3CCC2CC(=CCOc2cccc(F)c2)C3)c1Cl` [Example 3.12]: in the test with Aedes aegypti, the pest or weed control at 2 ppm is at least 80%. The pest or weed control at 200 ppm (in test [2]; in the test on Pyricularia oryzae (setting [4]); in the test with Plutella xylostella; with Heliothis virescens) was at least 80% each time.

`CCc1ncnc(N2C3CCC2CC(=CCOc2ccc(Cl)c(OC)c2)C3)c1Cl` [Example 3.13] had a pest or weed control at 2 ppm in the test with Aedes aegypti of at least 80%. Besides, the pest or weed control at 200 ppm (in [2]; in the test on Pyricularia oryzae (setting [4]); in the test on Heliothis virescens) was at least 80% each time.

In the test with Aedes aegypti, `Cc1ccc(OCC=C2CC3CCC(C2)N3c2ncnc3sccc23)cc1` [Example 3.30] came in with a pest or weed control at 2 ppm of at least 80%. In addition, the pest or weed control at 200 ppm (in [2]; in the test with Pyricularia oryzae (setting [4]); with Phytophthora infestans; in the test with Plasmopara viticola; in the test on Heliothis virescens) was at least 80% in each case.

With `C#CCN(CC#C)C1C[C@H]2CC[C@@H](C1)N2c1ncnc(CC)c1Cl` (some centres unmarked) [Example 4.19], the pest or weed control at 200 ppm (in test [2]; in the test with Heliothis virescens) was at least 80% each time.

As for `CCc1ncnc(N2C3CCC2CC(=NOCc2ccccc2)C3)c1Cl` [Example 5.5], the pest or weed control at 2 ppm in the test with Aedes aegypti was at least 80%. Also, the pest or weed control at 200 ppm (in test [1]; in test [2]; in the test with Phytophthora infestans; in the test on Plutella xylostella; in the test on Heliothis virescens) was at least 80% throughout.

Consider `CCc1ncnc(N2C3CCC2CC(=NOCc2ccc(C#N)cc2)C3)c1Cl` [Example 5.14], for which the pest or weed control at 200 ppm (in test [1]; in test [2]; with Pyricularia oryzae (setting [4]); with Plutella xylostella; in the test with Heliothis virescens) was at least 80% in each case.

For `CCc1ncnc(N2C3CCC2CC(=NOCc2ccc(C(C)C)cc2)C3)c1Cl` [Example 5.20], the pest or weed control at 200 ppm (in test [1]; in test [2]; in the test on Plasmopara viticola; with Tetranychus urticae) was at least 80% throughout.

Consider `CCc1ncnc(N2C3CCC2CC(=NOCc2cc(F)ccc2F)C3)c1Cl` [Example 5.73], for which the pest or weed control at 2 ppm in the test on Aedes aegypti is at least 80%. Further, the pest or weed control at 200 ppm in test [1] was at least 80%; in test [2] it was at least 80%; in the test with Pyricularia oryzae (setting [3]) it was at least 60%; in the test on Plutella xylostella it was at least 80%; with Heliothis virescens, at least 80%.

In the test with Aedes aegypti, `CCc1ncnc(N2C3CCC2CC(=NOCc2cc(F)c(F)cc2F)C3)c1Cl` [Example 5.87] showed a pest or weed control at 2 ppm of at least 80%. Further, the pest or weed control at 200 ppm (in test [1]; in [2]; with Plutella xylostella; in the test on Heliothis virescens) was at least 80% in each case.

In the test with Aedes aegypti, `c1ccc2cc(CON=C3CC4CCC(C3)N4c3ncnc4sccc34)ccc2c1` [Example 5.147] came in with a pest or weed control at 2 ppm of at least 80%. The pest or weed control at 200 ppm (in test [1]; in test [2]; with Phytophthora infestans; in the test with Plutella xylostella; in the test on Tetranychus urticae) was at least 80% each time.

`CCc1ccc(CON=C2CC3CCC(C2)N3c2ncnc3sccc23)cc1` [Example 5.151] showed a pest or weed control at 2 ppm in the test with Aedes aegypti of at least 80%. In addition, the pest or weed control at 200 ppm (in [1]; in test [2]; in the test on Pyricularia oryzae (setting [4]); in the test on Phytophthora infestans; with Plasmopara viticola; in the test on Tetranychus urticae) was at least 80% throughout.

In the test on Aedes aegypti, `FC(F)(F)c1ccc(CON=C2CC3CCC(C2)N3c2ncnc3sccc23)cc1` [Example 5.160] gave a pest or weed control at 2 ppm of at least 80%. Moreover, the pest or weed control at 200 ppm (in [1]; in [2]; in the test with Pyricularia oryzae (setting [4]); in the test on Phytophthora infestans; with Plasmopara viticola; in the test on Plutella xylostella) was at least 80% each time. Moreover, the pest or weed control at 200 ppm in the test with Tetranychus urticae is at least 80%.

For `N#Cc1ccc(CON=C2CC3CCC(C2)N3c2ncnc3sccc23)cc1` [Example 5.163], the pest or weed control at 2 ppm in the test with Aedes aegypti is at least 80%. The pest or weed control at 200 ppm (in [1]; in test [2]; in the test with Pyricularia oryzae (setting [4]); in the test on Phytophthora infestans; in the test with Plutella xylostella; in the test on Heliothis virescens) was at least 80% throughout.

In the test with Aedes aegypti, `FC(F)(F)Oc1ccc(CON=C2CC3CCC(C2)N3c2ncnc3sccc23)cc1` [Example 5.210] yielded a pest or weed control at 2 ppm of at least 80%. The pest or weed control at 200 ppm (in test [1]; in test [2]; in the test on Phytophthora infestans; in the test with Plutella xylostella; with Tetranychus urticae) was at least 80% throughout.

The compound `Fc1c(Cl)cccc1CON=C1CC2CCC(C1)N2c1ncnc2sccc12` [Example 5.217] displayed a pest or weed control at 2 ppm in the test on Aedes aegypti of at least 80%. Besides, the pest or weed control at 200 ppm in test [1] was at least 80%; in [2] it was at least 80%; with Pyricularia oryzae (setting [3]), at least 60%; in the test on Pyricularia oryzae (setting [4]) it was at least 80%; in the test with Plutella xylostella, at least 80%; in the test with Tetranychus urticae it was at least 80%.

In turn, `Fc1ccc(F)c(CON=C2CC3CCC(C2)N3c2ncnc3sccc23)c1F` [Example 5.228] showed a pest or weed control at 2 ppm with Aedes aegypti of at least 80%. The pest or weed control at 200 ppm in [1] is at least 80%; in [2] it was at least 80%; in the test on Pyricularia oryzae (setting [3]), at least 60%; with Phytophthora infestans, at least 80%; in the test with Plasmopara viticola, at least 80%; in the test on Plutella xylostella it was at least 80%. The pest or weed control at 200 ppm in the test with Tetranychus urticae is at least 80%.

Compound `CCCC1COC2(CC3CCC(C2)N3c2ncnc3sccc23)O1` (centres unmarked) [Example 6.10] gave a pest or weed control at 2 ppm in the test on Aedes aegypti of at least 80%. The pest or weed control at 200 ppm (in [1]; in test [2]; in the test on Pyricularia oryzae (setting [4]); in the test with Plasmopara viticola; in the test with Plutella xylostella; with Tetranychus urticae) was at least 80% in each case.

In the case of `Cc1ccc(CC2CC3CCC(C2)N3c2ncnc3sccc23)cc1` (centres unmarked) [Example 7.8], the pest or weed control at 2 ppm in the test on Aedes aegypti is at least 80%. The pest or weed control at 200 ppm in [2] was at least 80%; with Pyricularia oryzae (setting [3]), at least 60%; with Pyricularia oryzae (setting [4]), at least 80%; with Plasmopara viticola, at least 80%; with Plutella xylostella, at least 80%; with Heliothis virescens it was at least 80%.

Regarding `CCc1ncnc(N2C3CCC2CC(Cc2ccc(C)cc2)C3)c1Cl` (centres unmarked) [Example 7.26], the pest or weed control at 2 ppm with Aedes aegypti was at least 80%. For the same compound, the pest or weed control at 200 ppm in the test with Plutella xylostella and with Heliothis virescens was at least 80% each time.
